Measured values: patent US12509446B2, “FYN and VEGFR2 kinase inhibitors” (ROTTAPHARM BIOTECH S.R.L., priority 2019, dated 2025)

Key:
Fyn = Fyn (Homo sapiens (Human), UniProt P06241); assay: Z′-LYTE in vitro Fyn kinase activity assay; type: biochemical; conditions: ATP 50 μM; read-out: FYN KINASE INHIBITION IC50
Description: The Fyn kinase inhibitory activity of representative examples of compounds of Formula (1) was evaluated by Z′-LYTE™ Kinase Assay Platform (Invitrogen). Compounds were evaluated towards active Fyn (full length active, molecular weight 87.1 kDa; Invitrogen). […] Samples representing the 0% inhibition (or total enzymatic activity) were in the presence of compound diluent (1% DMSO final in Reaction Buffer 50 mMHepes, 10 mM MgCl2, 1 mM EGTA, 0.01% Brij-35, pH 7.5). The kinase reaction was carried out in a total volume of 10 μl, for 60 minutes at 25° C. The 0% Phosphorylation (i.e. no ATP) and 100% Phosphorylation Assay Controls, included in each plate, allowed to calculate the percent phosphorylation achieved in the specific reaction well. Results are expressed as percentage of inhibition and the IC50 values were calculated by non-linear curve fitting using GraphPad™ Prism software (version 6 for Windows).

[1] = system: rat primary articular chondrocytes; assay: Toxicity analysis (MTT) in rat primary chondrocytes; conditions: for First toxic concentration at 24 h: rat primary chondrocytes
Description: Purified chondrocytes were resuspended in DMEM glutaMAX 10% and plated in a 96X well plate for toxicity analysis and in a 6X well plate for gene expression analysis.
For toxicity analysis cells were then treated with the different compounds for 24 and 48 h. At the end of the incubation time, the medium was removed and was substituted with a mixture 10:1 of DMEM glutaMAX 10%—MTT (2 mg/ml) for 1 h at 37° C. in the cell incubator. After this incubation, the precipitated salt was dissolved with 100 μl of DMSO and the plate was read at 540 nm. The toxicity analysis were performed to decide the maximal non toxic concentration of each compound used in the gene expression assay.

VEGFR2 = VEGFR2 (Homo sapiens (Human), UniProt P35968); assay: In vitro VEGFR2 kinase activity assay (Eurofins Cerep); type: biochemical; conditions: read-out: VEGFR2 KINASE INHIBITION IC50
Description: The VEGFR2 kinase inhibitory activity of representative examples of compounds of Formula (I) assays was evaluated in Eurofins Cerep (France). The concentration range of the inhibitors under investigation was from 10^−8 M up to 10^−5 M final concentration. Some compounds were re-tested in a concentration-range starting from 10^−9 M. The results are expressed as a percent of control activity (in the absence of test compound) and the IC50 values were determined by non-linear regression analysis of the inhibition/concentration curves generated with mean replicate values.

ADAMTS-5 = assay: Gene expression in rat articular chondrocytes under IL-1β stimulation, ADAMTS-5; type: cell-based; conditions: for ADAMTS-5 gene expression, percentage of inhibitory effect at the highest non toxic concentration: 6 h
Description: (§1) For gene expression analysis, 10 days after plating, the medium was changed and substituted with DMEM GlutaMAX I 0.4% to synchronize the cells. The cells were then co-treated in DMEM GlutaMAX I 0.4% with different concentrations of the test compounds and […] at a final concentration of 2 ng/ml for 6 h and 24 h. The test compound concentrations used have been chosen on the basis of the toxicity data.
(§2) At the end of the incubation, the supernatant was discarded, the cell were washed with cold PBS1X and scraped with 200 μl of RNA lysis buffer 1X (Nucleic Acid Purification Lysis Solution, Applied Biosystems).
(§3) Total RNA was purified using ABI Prism™ 6100 Nucleic Acid PrepStation (Applied Biosystems) following manufacturer's instructions.
(§4) Total RNA was retrotranscribed using the High-Capacity cDNA Archive Kit (Applied Biosystems-Thermo Fisher Scientific) following manufacturer's instructions.
(§5) The specific probes and primers for RealTime PCR were from Applied Biosystems (Thermo Fisher Scientific) as Assays-on-Demand™, while the probe and primers for the endogenous control 18S was a PDAR (Pre-Developed TaqMan® Assay Reagents—Applied Biosystems-Thermo Fisher Scientific).
(§6) The assays were designed to amplify target cDNA without amplifying genomic DNA.
(§7) Gene expression analysis for IL-1β, IL-6 and ADAMTS-5 were performed at 6 h incubation, while the gene expression analysis for MMP3, MMP13 and COX2 were performed at 24 h incubation.
(§8) For each compound the maximal concentration tested was dependent on the toxicity results obtained on primary rat chondrocytes.
(§9) The data analysis, with the normalisation on the amplified values for the 18S was done following the specific instruction of Applied Biosystems for the relative quantification of gene expression.

COX2 = assay: Gene expression in rat articular chondrocytes under IL-1β stimulation, COX2; type: cell-based; parameters: key to COX2 gene expression, no effect: ne: no effect; conditions: for COX2 gene expression, no effect / COX2 gene expression, percentage of inhibitory effect at the highest non toxic concentration: 24 h; for COX2 gene expression, percentage of inhibitory effect at the highest non toxic concentration: 3 μM
MMP13 = assay: Gene expression in rat articular chondrocytes under IL-1β stimulation, MMP13; type: cell-based; parameters: key to MMP13 gene expression, no effect: ne: no effect; conditions: for MMP13 gene expression, no effect / MMP13 gene expression, percentage of inhibitory effect at the highest non toxic concentration: 24 h; for MMP13 gene expression, percentage of inhibitory effect at the highest non toxic concentration: 3 μM
Description: as §1, §2, §3, §4, §5, §6, §7, §8, §9

NF-kB = assay: Gene reporter (GR) assay, NF-kB activation after TNFα in JB6 Cl 41-5a (P+) cells; type: cell-based, murine; conditions: Mus musculus, JB6 Cl 41-5a, TNFα 2 ng/ml, non toxic concentrations; read-out: Gene reporter (GR) inhibition IC50
Description: To determine if the compounds of the invention were active also in a cellular model, a gene reporter assay was established in a cell line (JB6 Cl 41-5a (P+)) know to activate Fyn kinase via an inflammatory stimuli (TNFα). GR assay measures the activation of the nuclear transcription factor NF-kB, situated down-stream the Fyn activation pathway. Products active in this analysis has to penetrate in the cell and inhibit the activation pathway of NF-kB.
The murine epithelial cell line JB6 Cl 41-5a (P+) (ATCC® Cat. #CRL-2010) was stably transfected with the pGL4.32[luc2P/NFkB-RE/Hygro] vector (Promega). Clonal selection was achieved by limiting with 80 μg/ml Hygromycin B. The clones were tested for their response to TNFα stimulus.
JB6(P+) NFkB-RE-luc2P transfected cells were used for the analysis of NF-kB activity modulation, after TNFα stimulation, by Fyn-inhibitors.
Cells were pre-treated with the different compounds for 1 h and then stimulated with 2 ng/ml TNFα for 4 h. Each tested condition was analyzed in quadruplicate.
The luciferase analysis was performed with ONE-Glo™+ToxLuciferase Reporter and Cell Viability Assay kit (Promega).

IL-6 = assay: Gene expression in rat articular chondrocytes under IL-1β stimulation, IL-6; type: cell-based; conditions: for IC50: Rattus norvegicus, Chondrocyte, 6 h incubation; for IL-6 gene expression, percentage of inhibitory effect at the highest non toxic concentration: 3 μM, 6 h
Description: as §1, §2, §3, §4, §5, §6, §7, §8, §9

MMP3 = assay: Gene expression in rat articular chondrocytes under IL-1β stimulation, MMP3; type: cell-based; parameters: key to MMP3 gene expression, no effect: ne: no effect; conditions: for MMP3 gene expression, no effect / MMP3 gene expression, percentage of inhibitory effect at the highest non toxic concentration: 24 h; for MMP3 gene expression, percentage of inhibitory effect at the highest non toxic concentration: 3 μM
Description: as §1, §2, §3, §4, §5, §6, §7, §8, §9

[2] = system: bovine nasal septum cartilage; assay: Inhibition of cartilage degradation (GAG release) induced by IL-1α in a bovine in vitro model; type: cell-based; parameters: key to Bovine cartilage degradation induced by IL-1α, no effect: ne: no effect
Description: Nasal septum cartilage was collected from an eight months-old male bovine in a local slaughterhouse.
Tissue was sprayed with ethanol 70% and immediately put in sterile PBS with Antibiotic-Antimycotic stabilized solution (PBS-AASS). It was cut in order to obtain small punches (diameter 2 mm, 1 mm-thick). washed with sterile PBS-AASS, the slices were transferred in a 96X well plate (one piece per well) in DMEM 10%+AASS. 48 h later the cartilage was stimulated in white DMEM+0.1% BSA+AASS with IL-1α […] in the absence or presence of the studied compounds.
The compounds concentration used in this analysis was chosen depending on the toxicity results obtained in rat primary chondrocytes at 48 h of incubation.
After 48 h stimulation, the culture medium was collected and stored at −80° C. The cartilage punches were digested with papain at 65° C. for 2 h in phosphate buffer (0.05M pH 6.5 with 2 mM N-acetil-L-cisteine and 2 mM EDTA).
The glycosaminoglycan (GAG) determination was done by a colorimetric assay with 1,9 dimethyl methylene blue (DMB).
Digested cartilage samples were diluted in PBS-BSA 1%. To 100 μl of diluted samples or standard we added 100 μl DMB 2X. After 5-20 min incubation the samples were read at 590 nm (Titertek Multiscan Plus).
The cartilage degradation induced by IL-1α was expressed as: GAG (medium)/total GAG (medium+cartilage)×100

IL-1β = assay: Gene expression in rat articular chondrocytes under IL-1β stimulation, IL-1β; type: cell-based; conditions: for IL-1β gene expression, percentage of inhibitory effect at the highest non toxic concentration: 6 h; for IC50: Rattus norvegicus, Chondrocyte, 6 h incubation
Description: as §1, §2, §3, §4, §5, §6, §7, §8, §9

[3] = Bos taurus, read-out: Bovine cartilage degradation induced by IL-1α, % inhibitory effect at max concentration
[4] = Rattus norvegicus, Chondrocyte, 24 h incubation

Chain of VEGFR2 (P35968 20-1356): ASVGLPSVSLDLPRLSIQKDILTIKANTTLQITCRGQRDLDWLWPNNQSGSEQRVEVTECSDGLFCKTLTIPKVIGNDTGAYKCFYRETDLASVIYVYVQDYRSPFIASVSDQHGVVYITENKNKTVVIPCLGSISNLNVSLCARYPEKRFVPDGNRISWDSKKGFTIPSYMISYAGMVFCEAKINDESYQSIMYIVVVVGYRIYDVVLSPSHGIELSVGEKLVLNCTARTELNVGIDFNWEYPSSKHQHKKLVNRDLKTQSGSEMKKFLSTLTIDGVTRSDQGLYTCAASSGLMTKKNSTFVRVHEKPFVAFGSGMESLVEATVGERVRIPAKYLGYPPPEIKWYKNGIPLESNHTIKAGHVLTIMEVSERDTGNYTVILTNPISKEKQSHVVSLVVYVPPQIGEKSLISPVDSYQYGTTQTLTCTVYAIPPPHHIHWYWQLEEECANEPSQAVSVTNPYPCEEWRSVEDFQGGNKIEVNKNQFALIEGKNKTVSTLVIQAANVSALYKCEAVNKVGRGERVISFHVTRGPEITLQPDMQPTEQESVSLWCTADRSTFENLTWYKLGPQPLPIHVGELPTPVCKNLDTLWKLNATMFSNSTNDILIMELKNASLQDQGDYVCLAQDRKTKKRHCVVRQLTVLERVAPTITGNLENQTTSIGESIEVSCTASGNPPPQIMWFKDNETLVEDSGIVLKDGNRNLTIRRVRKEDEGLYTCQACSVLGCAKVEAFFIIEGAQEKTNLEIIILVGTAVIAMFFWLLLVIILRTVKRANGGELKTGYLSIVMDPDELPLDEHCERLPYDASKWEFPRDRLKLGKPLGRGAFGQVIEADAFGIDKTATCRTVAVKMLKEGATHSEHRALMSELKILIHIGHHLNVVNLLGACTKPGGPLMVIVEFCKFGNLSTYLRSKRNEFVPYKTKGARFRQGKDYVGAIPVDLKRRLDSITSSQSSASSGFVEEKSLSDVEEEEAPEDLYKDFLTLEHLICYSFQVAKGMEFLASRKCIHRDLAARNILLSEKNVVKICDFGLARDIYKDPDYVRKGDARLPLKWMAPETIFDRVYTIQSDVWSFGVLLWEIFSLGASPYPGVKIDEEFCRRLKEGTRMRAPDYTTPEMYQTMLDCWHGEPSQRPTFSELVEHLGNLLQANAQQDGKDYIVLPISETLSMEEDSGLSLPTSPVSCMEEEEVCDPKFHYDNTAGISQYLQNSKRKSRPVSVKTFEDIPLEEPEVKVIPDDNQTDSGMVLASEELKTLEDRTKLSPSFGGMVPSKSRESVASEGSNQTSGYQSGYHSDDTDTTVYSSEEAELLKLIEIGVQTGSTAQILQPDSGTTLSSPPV
Chain of Fyn (P06241 whole entry): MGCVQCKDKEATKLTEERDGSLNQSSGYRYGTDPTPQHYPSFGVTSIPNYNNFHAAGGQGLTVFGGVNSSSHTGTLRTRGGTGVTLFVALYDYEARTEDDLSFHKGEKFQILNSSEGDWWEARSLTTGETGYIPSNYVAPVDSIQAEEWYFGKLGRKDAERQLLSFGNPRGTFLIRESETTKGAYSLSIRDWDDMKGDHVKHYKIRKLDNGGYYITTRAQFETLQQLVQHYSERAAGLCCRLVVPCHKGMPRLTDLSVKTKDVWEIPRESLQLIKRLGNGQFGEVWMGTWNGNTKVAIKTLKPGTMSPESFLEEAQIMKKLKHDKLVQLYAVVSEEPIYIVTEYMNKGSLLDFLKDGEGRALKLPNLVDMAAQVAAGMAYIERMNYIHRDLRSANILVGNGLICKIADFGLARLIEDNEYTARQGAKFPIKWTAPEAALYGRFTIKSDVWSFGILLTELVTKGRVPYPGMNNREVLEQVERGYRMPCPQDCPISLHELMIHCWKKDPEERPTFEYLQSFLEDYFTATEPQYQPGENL

| IC50 (Fyn) [nM] | IC50 (VEGFR2) [nM] | IC50 (IL-6) [nM] | IC50 (IL-1β) [nM] | SMILES | First toxic concentration at 48 h in rat primary chondrocytes [1] [µM] | First toxic concentration at 24 h [1] [µM] | ADAMTS-5 gene expression, percentage of inhibitory effect at the highest non toxic concentration (ADAMTS-5; 1 μM) | COX2 gene expression, no effect (COX2) | MMP13 gene expression, no effect (MMP13) | IC50 (NF-kB) [nM] | MMP3 gene expression, no effect (MMP3) | Bovine cartilage degradation induced by IL-1α, no effect [2] | ADAMTS-5 gene expression, percentage of inhibitory effect at the highest non toxic concentration (ADAMTS-5; 3 μM) | COX2 gene expression, percentage of inhibitory effect at the highest non toxic concentration (COX2) | MMP13 gene expression, percentage of inhibitory effect at the highest non toxic concentration (MMP13) | IL-6 gene expression, percentage of inhibitory effect at the highest non toxic concentration (IL-6) | MMP3 gene expression, percentage of inhibitory effect at the highest non toxic concentration (MMP3) | inhibition at 3 µM [2, 3] [%] | IL-1β gene expression, percentage of inhibitory effect at the highest non toxic concentration (IL-1β; 3 μM) | further results |
| --- | --- | --- | --- | --- | --- | --- | --- | --- | --- | --- | --- | --- | --- | --- | --- | --- | --- | --- | --- | --- |
| 112 | < 10 | 640 | – | Cc1nc(C(=O)Nc2ccc(C)c(CCc3cc(Nc4cnccn4)[nH]n3)c2)c(C(F)(F)F)o1 [Compound 6, 2-methyl-N-(4-methyl-3-(2-(5-(pyrazin-2-ylamino)-1H-pyrazol-3-yl)ethyl)phenyl)-5-(trifluoromethyl)oxazole-4-carboxamide] | 3 | 3 | 1 μM 28% | ne | ne | 2670 | ne | ne | – | – | – | – | – | – | – | IL-1β gene expression, percentage of inhibitory effect at the highest non toxic concentration (IL-1β; 1 μM): 1 μM 50% |
| 27 | 10 | 200 | 600 | Cc1ccc(NC(=O)c2cccc(S(C)(=O)=O)c2)cc1CCc1cnc(Nc2cnccn2)s1 [Compound 48, N-(4-methyl-3-(2-(2-(pyrazin-2-ylamino)thiazol-5-yl)ethyl)phenyl)-3-(methylsulfonyl)benzamide] | 3 | 3 | 1 μM 70% | ne | ne | 275 | ne | ne | – | – | – | – | – | – | – | – |
| 16 | < 10 | – | – | Cc1ccc(NC(=O)c2cccc(C(F)F)c2)cc1CCc1cc(Nc2cnccn2)[nH]n1 [Compound 33, 3-(difluoromethyl)-N-(4-methyl-3-(2-(5-(pyrazin-2-ylamino)-1H-pyrazol-3-yl)ethyl)phenyl) benzamide] | 10 | 10 | – | – | – | 363 | – | – | 3 μM 90% | 3 μM 89% | 3 μM 94% | 3 μM 100% | 3 μM 81% | 91 | 3 μM 93% | – |
| 69 | 110 | – | 100 | Cc1ccc(NC(=O)c2cccc(C(F)(F)F)c2)cc1CCc1cc(NC(=O)c2ccc(F)cc2)[nH]n1 [Compound 19, N-(3-(2-(3-(4-fluorobenzamido)-1H-pyrazol-5-yl)ethyl)-4-methylphenyl)-3-(trifluoromethyl)benzamide] | 10 | 10 | – | – | – | 883 | – | – | – | – | – | 3 μM 99% | – | 83 | – | IC50 (ADAMTS-5; Rattus norvegicus, Chondrocyte, 6 h incubation): 100 nM; IC50 (COX2; [4]): 400 nM; IC50 (MMP13; [4]): 500 nM; IC50 (MMP3; [4]): 600 nM |
| 31 | 10 | – | – | Cc1cnc(Nc2cc(CCc3cc(NC(=O)c4cccc(C(F)(F)F)c4)ccc3F)n[nH]2)c(C)n1 [Compound 14, N-(3-(2-(5-((3,5-dimethylpyrazin-2-yl)amino)-1H-pyrazol-3-yl)ethyl)-4-fluorophenyl)-3-(trifluoromethyl)benzamide] | 10 | 10 | – | – | – | 487 | – | – | 3 μM 99% | 3 μM 100% | 3 μM 99% | 3 μM 100% | 3 μM 95% | 97 | 3 μM 99% | – |
| 18 | < 10 | – | – | Cc1nccnc1Nc1cc(CCc2cc(NC(=O)c3cccc(C(F)(F)F)c3)ccc2F)n[nH]1 [Compound 15, N-(4-fluoro-3-(2-(5-((3-methylpyrazin-2-yl)amino)-1H-pyrazol-3-yl)ethyl)phenyl)-3-(trifluoromethyl)benzamide] | 3 | 10 | – | – | – | – | – | – | 3 μM 96% | 3 μM 97% | 3 μM 99% | 3 μM 100% | 3 μM 90% | – | 3 μM 98% | inhibition at 1 µM ([2]; Bos taurus, 1 μM, read-out: Bovine cartilage degradation induced by IL-1α, % inhibitory effect at max concentration): 96%; Inhibitory effect on the GAG release ([2]; at max concentration): 95-100% |
